{"source": "patent US20250101062A1", "about": "“ANTIMICROBIAL PEPTIDES” (Board of Regents of the University of Nebraska, priority 2023, published 2025)", "key": {"S. aureus USA300 LAC": {"system": "S. aureus USA300 LAC", "assay": "microbe, parasite or virus in culture", "format": "cell-based, Staphylococcus aureus", "outline": "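Broth microdilution with twofold peptide dilutions, using exponential-phase bacteria at about 10^5 CFU/mL in MHB, incubated overnight at 37 °C and read at OD600. MIC, reported as a range, is the peptide concentration with no growth. Some tests used diluted MHB/TSB/LB, adjusted pH, or added NaCl or human serum.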"}, "MRSA USA300": {"system": "MRSA USA300", "assay": "Membrane permeabilization (propidium iodide)", "format": "cell-based, Staphylococcus aureus", "description": "The peptide ladder was prepared as described for the antibacterial assay with 10 μL of solution in a black COSTAR® 96-well plate. PI (MP Biomedicals, Solon, OH) was prepared in the dark and dissolved in dimethylsulfoxide (Thermo Fisher Scientific, NY) to 20 mM. This PI stock solution was further diluted to 1 mM with water, and 2 μL of 1 mM PI was added to each well. Exponential-phase MRSA USA300 was diluted to OD600 0.11 with TSB, and 88 μL was added to each well. The plate was incubated at 37° C. with continuous shaking in a FLUOstar® Omega (BMG LABTECH, NC) microplate reader. The sample was read every 5 minutes for 24 cycles with excitation and emission wavelengths of 584 and 620 nm, respectively.\nBacterial membrane permeation was conducted (Yeaman, et al. (1998) J. Clin. Invest., 101(1):178-87). In brief, the peptide ladder was prepared as described for the antibacterial assay with 10 μL in a black COSTAR 96-well plate. Propidium iodide (PI) (MP Biomedicals, Solon, OH) was prepared in the dark and dissolved in DMSO (Thermo Fisher Scientific, NY) to 20 mM. This PI stock solution was further diluted to 1 mM with water and 2 μL of 1 mM PI was added to each well. Exponential phase MRSA USA300 or P. aeruginosa E411-17 was diluted to OD600 0.11 with tryptic soy broth (TSB) and 88 μL was added to each well. The plate was incubated at 37° C. with continuous shaking in a FLUOstar® Omega (BMG LABTECH, NC) microplate reader. The sample was read every 5 minutes for 24 cycles with excitation and emission wavelengths at 584 nm and 620 nm, respectively."}, "E. coli E423-17 biofilms": {"system": "E. coli E423-17 biofilms", "assay": "Disruption of preformed biofilms in vitro (XTT)", "format": "cell-based, Escherichia coli", "conditions": "for effect on biofilms: 24 h preformed biofilm", "description": "Effects of Peptides on Established Biofilms in Vitro. Bacteria (S. aureus USA300 LAC and E. coli E423-17) were grown in rich TSB media overnight. A second inoculation was made the next day to reach an exponential phase (OD600˜0.4). Microtiter plates (96 wells, Corning Costar Cat no. 3595), after aliquoting with 180 μL of the culture to each well, were incubated at 37° C. for 24 hours to form biofilms in rich TSB. Media were aspirated post incubation, and the attached biofilms were washed with 1×PBS to remove the planktonic bacteria. […] Biofilms treated with water served as the positive control, while media without bacterial inoculation served as the negative control. Live cells in the biofilms were quantitated using XTT as described above. Absorbance was read at 450 nm (only media with XTT containing wells served as the blank) using a ChroMate™ microtiter plate reader. Percentage biofilm growth for the peptide was plotted by assuming 100% biofilm growth in bacterial control alone. The data were represented as mean±SD; plots were generated using GraphPad prism 7, where * indicates p<0.05, **p<0.01, and ***P<0.001, and ****p<0.0001 (one-way analyses of variance)."}}, "note": "Read-outs that look alike come from different tables or passages of the source. Where no end group is shown, it is not given here.", "data": [{"compound": "CCCCCCCCCC(=O)N[C@@H](Cc1c[nH]c2ccccc12)C(=O)N[C@H](CC(N)=O)C(=O)N[C@@H](CC(=O)O)C(=O)N[C@@H]1C(=O)NCC(=O)N[C@@H](CCCN)C(=O)N[C@@H](CC(=O)O)C(=O)N[C@H](C)C(=O)N[C@@H](CC(=O)O)C(=O)NCC(=O)N[C@H](CO)C(=O)N[C@@H]([C@H](C)CC(=O)O)C(=O)N[C@@H](CC(=O)c2ccccc2N)C(=O)O[C@@H]1C", "note": "[Daptomycin]", "values": [{"measurement": "MIC", "setting": "S. aureus USA300 LAC; Staphylococcus aureus, MRSA / USA300, MRSA in MHB, 10% serum, read-out: Antimicrobial activity (MIC)", "result": 1, "unit": "µM"}, {"measurement": "MIC", "setting": "S. aureus USA300 LAC; Staphylococcus aureus, MRSA / USA300, MRSA in MHB, 20% serum, read-out: Antimicrobial activity (MIC)", "result": 1, "unit": "µM"}, {"measurement": "MIC", "setting": "S. aureus USA300 LAC; Staphylococcus aureus, MRSA / USA300, MRSA in MHB, NaCl (150 mM), read-out: Antimicrobial activity (MIC)", "result": 1, "unit": "µM"}, {"measurement": "MIC", "setting": "S. aureus USA300 LAC; Staphylococcus aureus, MRSA / USA300, pH 6.3, MRSA in MHB, pH 6.3, read-out: Antimicrobial activity (MIC)", "result": 1, "unit": "µM"}, {"measurement": "MIC", "setting": "S. aureus USA300 LAC; Staphylococcus aureus, MRSA / USA300, pH 7.2, MRSA in MHB, pH 7.2, read-out: Antimicrobial activity (MIC)", "result": 1, "unit": "µM"}, {"measurement": "MIC", "setting": "S. aureus USA300 LAC; Staphylococcus aureus, USA300, Human serum 5%, read-out: Antimicrobial activity (MIC)", "result": "0.5 to 1", "unit": "µM"}, {"measurement": "MIC", "setting": "S. aureus USA300 LAC; Staphylococcus aureus, USA300, Human serum 10%, read-out: Antimicrobial activity (MIC)", "result": "0.5 to 1", "unit": "µM"}, {"measurement": "MIC", "setting": "S. aureus USA300 LAC; Staphylococcus aureus, USA300, MHB, Table 8, read-out: Antimicrobial activity (MIC) S. aureus USA300", "result": "0.5 to 1", "unit": "µM"}, {"measurement": "MIC", "setting": "S. aureus USA300 LAC; Staphylococcus aureus, USA300, NaCl (150 mM), read-out: Antimicrobial activity (MIC)", "result": 0.5, "unit": "µM"}, {"measurement": "MIC", "setting": "S. aureus USA300 LAC; Staphylococcus aureus, USA300, pH 6.21, pH 6.21, read-out: Antimicrobial activity (MIC)", "result": "0.5 to 1", "unit": "µM"}, {"measurement": "MIC", "setting": "S. aureus USA300 LAC; Staphylococcus aureus, USA300, pH 7.22, pH 7.22, read-out: Antimicrobial activity (MIC)", "result": 0.5, "unit": "µM"}, {"measurement": "MIC", "setting": "S. aureus USA300 LAC; Staphylococcus aureus, USA300, pH 8.13, pH 8.13, read-out: Antimicrobial activity (MIC)", "result": 0.5, "unit": "µM"}, {"measurement": "membrane permeabilization", "setting": "MRSA USA300; Example 1, 1×MIC", "result": "membrane permeabilization after a delay"}]}, {"compound": "CC[C@H](C)[C@H](NC(=O)[C@H](CCCCN)NC(=O)[C@H](CCC(=O)O)NC(=O)[C@H](CCCCN)NC(=O)[C@H](CO)NC(=O)[C@H](CCCCN)NC(=O)[C@H](CCCNC(=N)N)NC(=O)[C@H](Cc1ccccc1)NC(=O)[C@H](Cc1ccccc1)NC(=O)[C@H](CC(=O)O)NC(=O)CNC(=O)[C@H](CC(C)C)NC(=O)[C@@H](N)CC(C)C)C(=O)NCC(=O)N[C@@H](CCCCN)C(=O)N[C@@H](CCC(=O)O)C(=O)N[C@@H](Cc1ccccc1)C(=O)N[C@@H](CCCCN)C(=O)N[C@@H](CCCNC(=N)N)C(=O)N[C@H](C(=O)N[C@H](C(=O)N[C@@H](CCC(N)=O)C(=O)N[C@@H](CCCNC(=N)N)C(=O)N[C@H](C(=O)N[C@@H](CCCCN)C(=O)N[C@@H](CC(=O)O)C(=O)N[C@@H](Cc1ccccc1)C(=O)N[C@@H](CC(C)C)C(=O)N[C@@H](CCCNC(=N)N)C(=O)N[C@@H](CC(N)=O)C(=O)N[C@@H](CC(C)C)C(=O)N[C@H](C(=O)N1CCC[C@H]1C(=O)N[C@@H](CCCNC(=N)N)C(=O)N[C@H](C(=O)N[C@@H](CCC(=O)O)C(=O)N[C@@H](CO)C(=O)O)[C@@H](C)O)C(C)C)[C@@H](C)CC)C(C)C)[C@@H](C)CC", "note": "[LL-37]", "values": [{"measurement": "MIC", "setting": "S. aureus USA300 LAC; DMEM, read-out: Antimicrobial activity (MIC)", "result": "≤4", "unit": "µM"}, {"measurement": "MIC", "setting": "S. aureus USA300 LAC; Human serum 5%, read-out: Antimicrobial activity (MIC)", "result": ">32", "unit": "µM"}, {"measurement": "MIC", "setting": "S. aureus USA300 LAC; Human serum 10%, read-out: Antimicrobial activity (MIC)", "result": ">32", "unit": "µM"}, {"measurement": "Antimicrobial activity (MIC)", "setting": "S. aureus USA300 LAC; LB 12.5%", "result": ">32", "unit": "µM"}, {"measurement": "Antimicrobial activity (MIC)", "setting": "S. aureus USA300 LAC; LB 25%", "result": ">32", "unit": "µM"}, {"measurement": "Antimicrobial activity (MIC)", "setting": "S. aureus USA300 LAC; LB 50%", "result": ">32", "unit": "µM"}, {"measurement": "Antimicrobial activity (MIC)", "setting": "S. aureus USA300 LAC; LB 100%", "result": ">32", "unit": "µM"}, {"measurement": "Antimicrobial activity (MIC)", "setting": "S. aureus USA300 LAC; MHB 50%", "result": 32, "unit": "µM"}, {"measurement": "Antimicrobial activity (MIC)", "setting": "S. aureus USA300 LAC; MHB 100%", "result": "did not display any activity"}, {"measurement": "MIC", "setting": "S. aureus USA300 LAC; MHB, Table 8, read-out: Antimicrobial activity (MIC) S. aureus USA300", "result": ">32", "unit": "µM"}, {"measurement": "MIC", "setting": "S. aureus USA300 LAC; NaCl (150 mM), read-out: Antimicrobial activity (MIC)", "result": ">32", "unit": "µM"}, {"measurement": "MIC", "setting": "S. aureus USA300 LAC; RPMI 1640, read-out: Antimicrobial activity (MIC)", "result": "≤4", "unit": "µM"}, {"measurement": "Antimicrobial activity (MIC)", "setting": "S. aureus USA300 LAC; TSB 12.5%", "result": ">32", "unit": "µM"}, {"measurement": "Antimicrobial activity (MIC)", "setting": "S. aureus USA300 LAC; TSB 25%", "result": ">32", "unit": "µM"}, {"measurement": "Antimicrobial activity (MIC)", "setting": "S. aureus USA300 LAC; TSB 50%", "result": ">32", "unit": "µM"}, {"measurement": "Antimicrobial activity (MIC)", "setting": "S. aureus USA300 LAC; TSB 100%", "result": ">32", "unit": "µM"}, {"measurement": "MIC", "setting": "S. aureus USA300 LAC; pH 6.21, read-out: Antimicrobial activity (MIC)", "result": ">32", "unit": "µM"}, {"measurement": "MIC", "setting": "S. aureus USA300 LAC; pH 7.22, read-out: Antimicrobial activity (MIC)", "result": ">32", "unit": "µM"}, {"measurement": "effect on biofilms", "setting": "E. coli E423-17 biofilms; 12.5% MHB", "result": "dose-dependent antibiofilm effect"}, {"measurement": "effect on biofilms", "setting": "E. coli E423-17 biofilms; 100% MHB", "result": "subtle effect"}, {"measurement": "membrane permeabilization", "setting": "MRSA USA300; Example 2, TSB, 1-32 μM", "result": "failed to do so"}]}, {"compound": "RRWWRWWR-NH2 [W543]", "values": [{"measurement": "change of MIC / activity", "setting": "S. aureus USA300 LAC; MRSA in MHB, 10% human serum", "result": "eightfold"}, {"measurement": "effect on MIC", "setting": "S. aureus USA300 LAC; MRSA in MHB, addition of 150 mM NaCl", "result": "did not alter the MIC"}, {"measurement": "increase of MIC", "setting": "S. aureus USA300 LAC; MRSA in MHB, decrease of pH from 7.2 to 6.3", "result": "twofold"}, {"measurement": "Activity (MIC) S. aureus", "setting": "S. aureus USA300 LAC; USA300", "result": "4 to 8", "unit": "µM"}, {"measurement": "Antimicrobial activity (MIC)", "setting": "S. aureus USA300 LAC; USA300", "result": 64, "unit": "µM"}, {"measurement": "Antimicrobial activity (MIC)", "setting": "S. aureus USA300 LAC; USA300, pH 6.3", "result": 16, "unit": "µM"}, {"measurement": "concentration with no growth", "setting": "S. aureus USA300 LAC; without protease", "result": 8, "unit": "µM"}, {"measurement": "effect on live cells in biofilms", "setting": "E. coli E423-17 biofilms; 24 hour preformed biofilms, 16 μM", "result": "almost eliminated"}, {"measurement": "reduction of live bacteria", "setting": "E. coli E423-17 biofilms; 24 hour preformed biofilms, treated at 8 μM", "result": "~40", "unit": "%"}, {"measurement": "membrane permeabilization", "setting": "MRSA USA300; Example 1, 1×MIC", "result": "clear fluorescence increase"}]}]}
